Reference: patent US10745382B2 (BRISTOL-MYERS SQUIBB COMPANY, priority 2015, dated 2020)
pIC50: −log10 of the molar value. Like-named read-outs stand apart in the source and are kept apart here.

Target: T1, PD-1/PD-L1 (Homo sapiens, UniProt Q9NZQ7)
T1 construct: made in house; host or cells: HEK293T
Experiment: PD-1/PD-L1 Homogenous Time-Resolved Fluorescence (HTRF) binding assay
Conditions: PD-L1-His 10 nM, PD-1-Ig 20 nM, read-out: Range or IC50
In short: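 Compounds are tested for blocking the PD-1/PD-L1 interaction in dPBS supplemented with 0.1% BSA and 0.05% (v/v) Tween-20. Tagged proteins are detected with Eu-cryptate anti-Ig and APC anti-His at 1 and 20 nM final.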

T1 sequence (Q9NZQ7 with tags, fused parts or gaps): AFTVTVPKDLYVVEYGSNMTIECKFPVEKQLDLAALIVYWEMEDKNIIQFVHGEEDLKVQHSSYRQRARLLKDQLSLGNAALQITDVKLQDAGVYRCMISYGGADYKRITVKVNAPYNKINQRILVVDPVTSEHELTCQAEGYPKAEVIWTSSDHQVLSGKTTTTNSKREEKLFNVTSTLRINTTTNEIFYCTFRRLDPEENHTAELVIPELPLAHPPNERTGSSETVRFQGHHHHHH

Compound	pIC50 (value given as range class)	pIC50 (numeric IC50)
C=CC(=O)NCCCOc1cccc(-c2cccc(COc3cc(OCc4cncc(C#N)c4)c(CN4CCCC[C@H]4C(=O)O)cc3Cl)c2C)c1 [Example 1020, (S)-1-(4-((3′-(3-acrylamidopropoxy)-2-methyl-[1,1′-biphenyl]-3-yl)methoxy)-5-chloro-2-((5-cyanopyridin-3-yl)methoxy)benzyl)piperidine-2-carboxylic Acid]	7.00 to 8.00	
Cc1c(COc2cc(OCc3cncc(C#N)c3)c(CNC[C@H](O)CO)cc2Cl)cccc1-c1cccc(OCCCN2CC(N(C)C)C2)c1Cl [Example 2028, (S)-5-((4-chloro-5-((2′-chloro-3′-(3-(3-(dimethylamino)azetidin-1-yl)propoxy)-2-methyl-[1,1′-biphenyl]-3-yl)methoxy)-2-(((2,3-dihydroxypropyl)amino)methyl)phenoxy)methyl)nicotinonitrile]	8.00 to 9.68	
Cc1c(COCCN2CC[C@@H](O)C2)cccc1-c1cccc(COc2cc(OCc3cncc(C#N)c3)c(CNC(CO)CO)cc2Cl)c1C [Example 4122, (R)-5-((4-chloro-2-(((1,3-dihydroxypropan-2-yl)amino)methyl)-5-((3′-((2-(3-hydroxypyrrolidin-1-yl)ethoxy)methyl)-2,2′-dimethyl-[1,1′-biphenyl]-3-yl)methoxy)phenoxy)methyl)nicotinonitrile]	8.00 to 9.68	
CCOC(=O)C1(O)CCN(CCCOc2cccc(-c3cccc(COc4cc(OCc5cncc(C#N)c5)c(CN[C@@H](CO)C(=O)O)cc4Cl)c3C)c2Cl)CC1 [Example 1095, (5-chloro-4-((2′-chloro-3′-(3-(4-(ethoxycarbonyl)-4-hydroxypiperidin-1-yl)propoxy)-2-methyl-[1,1′-biphenyl]-3-yl)methoxy)-2-((5-cyanopyridin-3-yl)methoxy)benzyl)-L-serine]	8.00 to 9.68	
Cc1c(COc2cc(OCc3cncc(C#N)c3)c(CNCCN3CCOCC3)cc2Cl)cccc1-c1cccc(OCCCN2CC[C@@H](O)C2)c1C [Example 2122, (R)-5-((4-chloro-5-((3′-(3-(3-hydroxypyrrolidin-1-yl)propoxy)-2,2′-dimethyl-[1,1′-biphenyl]-3-yl)methoxy)-2-(((2-morpholinoethyl)amino)methyl)phenoxy)methyl)nicotinonitrile]	8.00 to 9.68	
Cc1c(COc2cc(OCc3cc(F)cc(F)c3)c(CNC(C)(CO)CO)cc2Cl)cccc1-c1cccc(OCCCN2CC[C@@H](O)C2)c1C [Example 4520, (R)-2-((5-chloro-2-((3,5-difluorobenzyl)oxy)-4-((3′-(3-(3-hydroxypyrrolidin-1-yl)propoxy)-2,2′-dimethyl-[1,1′-biphenyl]-3-yl)methoxy)benzyl)amino)-2-methylpropane-1,3-diol]	8.00 to 9.68	
Cc1c(COc2cc(OCc3cncc(C#N)c3)c(CNC(CO)(CO)CO)cc2Cl)cccc1-c1cccc(OCCCNC(CO)(CO)CO)c1C [Example 2281, 5-((4-chloro-2-(((1,3-dihydroxy-2-(hydroxymethyl)propan-2-yl)amino)methyl)-5-((3′-(3-((1,3-dihydroxy-2-(hydroxymethyl)propan-2-yl)amino)propoxy)-2,2′-dimethyl-[1,1′-biphenyl]-3-yl)methoxy)phenoxy)methyl)nicotinonitrile]		8.52
Cc1c(OCCCN2CC[C@H](CO)[C@H](O)C2)cccc1-c1cccc(COc2cc(OCc3cncc(C#N)c3)c(CNC(CO)CO)cc2Cl)c1Cl [Example 2298, 5-((4-chloro-5-((2-chloro-3′-(3-((3S,4R)-3-hydroxy-4-(hydroxymethyl)piperidin-1-yl)propoxy)-2′-methyl-[1,1′-biphenyl]-3-yl)methoxy)-2-(((1,3-dihydroxypropan-2-yl)amino)methyl)phenoxy)methyl)nicotinonitrile]	8.00 to 9.68	
tert-butyl (S)-3-(((3′-((2-chloro-5-((5-cyanopyridin-3-yl)methoxy)-4-(((1,3-dihydroxypropan-2-yl)amino)methyl)phenoxy)methyl)-2,2′-dimethyl-[1,1′-biphenyl]-3-yl)oxy)methyl)pyrrolidine-1-carboxylate [Example 2322]	7.00 to 8.00	
Cc1c(COc2cc(OCc3cncc(C#N)c3)c(CN3CCCC[C@H]3C(=O)O)cc2Cl)cccc1-c1cccc(OCCCN2CCC(O)(c3ccccc3)C2)c1C (stereo partly drawn) [Example 3040, (2S)-1-(5-chloro-2-((5-cyanopyridin-3-yl)methoxy)-4-((3′-(3-(3-hydroxy-3-phenylpyrrolidin-1-yl)propoxy)-2,2′-dimethyl-[1,1′-biphenyl]-3-yl)methoxy)benzyl)piperidine-2-carboxylic Acid]	8.00 to 9.68	
COc1cc(CCc2cccc(-c3cccc(OCCCN4CC[C@@H](O)C4)c3C)c2C)c(Cl)cc1CN1CCCC[C@H]1C(=O)O [Example 4518, (S)-1-(5-chloro-4-(2-(3′-(3-((R)-3-hydroxypyrrolidin-1-yl)propoxy)-2,2′-dimethyl-[1,1′-biphenyl]-3-yl)ethyl)-2-methoxybenzyl)piperidine-2-carboxylic Acid]	8.00 to 9.68	
COC(=O)C1(C)CCCCN1Cc1cc(Cl)c(OCc2cccc(-c3cccc(OCCCN4CC[C@@H](O)C4)c3C)c2C)cc1OCc1cncc(C#N)c1 (stereo partly drawn) [Example 3069, methyl 1-(5-chloro-2-((5-cyanopyridin-3-yl)methoxy)-4-((3′-(3-((R)-3-hydroxypyrrolidin-1-yl)propoxy)-2,2′-dimethyl-[1,1′-biphenyl]-3-yl)methoxy)benzyl)-2-methylpiperidine-2-carboxylate]	8.00 to 9.68	
Cc1c(COc2cc(OCc3cncc(C#N)c3)c(CN3C[C@H](O)C[C@H]3C(=O)O)cc2Cl)cccc1-c1cccc(C(=O)N(C)C)c1C [Example 4032, (2S,4R)-1-(5-chloro-2-((5-cyanopyridin-3-yl)methoxy)-4-((3′-(dimethylcarbamoyl)-2,2′-dimethyl-[1,1′-biphenyl]-3-yl)methoxy)benzyl)-4-hydroxypyrrolidine-2-carboxylic Acid]	5.70 to 7.00	

The remaining lines, values ahead:

pIC50 (value given as range class)	pIC50 (numeric IC50)	Compound
8.00 to 9.68		Cc1ccc(OCCCN2CC[C@@H](O)C2)c(C)c1-c1cccc(COc2cc(OCc3cncc(C#N)c3)c(CN[C@@](C)(CO)C(=O)O)cc2Cl)c1C [Example 3028, (2S)-2-((5-chloro-2-((5-cyanopyridin-3-yl)methoxy)-4-((3′-(3-((R)-3-hydroxypyrrolidin-1-yl)propoxy)-2,2′,6′-trimethyl-[1,1′-biphenyl]-3-yl)methoxy)benzyl)amino)-3-hydroxy-2-methylpropanoic Acid]
8.00 to 9.68		Cc1c(COc2cc(OCc3cncc(C#N)c3)c(CN[C@](C)(CO)C(=O)O)cc2Cl)cccc1-c1cccc(OCCCN2CCC(O)(C(=O)O)CC2)c1Cl [Example 1099, (R)-1-(3-((3′-((4-(((2-carboxy-1-hydroxypropan-2-yl)amino)methyl)-2-chloro-5-((5-cyanopyridin-3-yl)methoxy)phenoxy)methyl)-2-chloro-2′-methyl-[1,1′-biphenyl]-3-yl)oxy)propyl)-4-hydroxypiperidine-4-carboxylic Acid]
	8.52	Cc1c(COc2cc(OCc3cncc(C#N)c3)c(CN[C@@H](Cc3ccc(O)cc3)C(=O)O)cc2Cl)cccc1-c1cccc(OCCCN2CC[C@@H](O)C2)c1C [Example 4157, (5-chloro-2-((5-cyanopyridin-3-yl)methoxy)-4-((3′-(3-((R)-3-hydroxypyrrolidin-1-yl)propoxy)-2,2′-dimethyl-[1,1′-biphenyl]-3-yl)methoxy)benzyl)-L-tyrosine]
8.00 to 9.68		Cc1c(COc2cc(OCc3cncc(C#N)c3)c(CNCCC(=O)O)cc2Cl)cccc1-c1cccc(OCCCN2CC[C@@H](O)C2)c1C [Example 4149, (R)-3-((5-chloro-2-((5-cyanopyridin-3-yl)methoxy)-4-((3′-(3-(3-hydroxypyrrolidin-1-yl)propoxy)-2,2′-dimethyl-[1,1′-biphenyl]-3-yl)methoxy)benzyl)amino)propanoic Acid]
8.00 to 9.68		Cc1c(COc2cc(OCc3cncc(C#N)c3)c(CNC(CO)(CO)CO)cc2Cl)cccc1-c1cccc(OCCCN2CC[C@@H](O)C2)c1C [Example 2285, (R)-5-((4-chloro-2-(((1,3-dihydroxy-2-(hydroxymethyl)propan-2-yl)amino)methyl)-5-((3′-(3-(3-hydroxypyrrolidin-1-yl)propoxy)-2,2′-dimethyl-[1,1′-biphenyl]-3-yl)methoxy)phenoxy)methyl)nicotinonitrile]
8.00 to 9.68		Cc1c(COc2cc(OCc3cncc(C#N)c3)c(CN[C@@](C)(CO)C(=O)O)cc2Cl)cccc1-c1cccc(OCCCN2CCCC(CO)C2)c1C (stereo partly drawn) [Example 2260, (2S)-2-(5-chloro-2-((5-cyanopyridin-3-yl)methoxy)-4-((3′-(3-(3-(hydroxymethyl)piperidin-1-yl)propoxy)-2,2′-dimethylbiphenyl-3-yl)methoxy)benzylamino)-3-hydroxy-2-methylpropanoic Acid]
8.00 to 9.68		Cc1c(COc2cc(OCc3cncc(C#N)c3)c(CN[C@](C)(CO)C(=O)O)cc2Cl)cccc1-c1cccc(OCCCN2CCC(O)C2)c1C(F)(F)F (stereo in doubt) [Example 3013, (R)-2-((5-chloro-2-((5-cyanopyridin-3-yl)methoxy)-4-((3′-(3-((R)-3-hydroxypyrrolidin-1-yl)propoxy)-2-methyl-2′-(trifluoromethyl)-[1,1′-biphenyl]-3-yl)methoxy)benzyl)amino)-3-hydroxy-2-methylpropanoic Acid]
8.00 to 9.68		CCN(Cc1cc(Cl)c(OCc2cccc(-c3cccc(OCCCN4CC[C@@H](O)C4)c3Cl)c2C)cc1OCc1cncc(C#N)c1)[C@](C)(CO)C(=O)O [Example 2072, (R)-2-((5-chloro-4-((2′-chloro-3′-(3-((R)-3-hydroxypyrrolidin-1-yl)propoxy)-2-methyl-[1,1′-biphenyl]-3-yl)methoxy)-2-((5-cyanopyridin-3-yl)methoxy)benzyl)(ethyl)amino)-3-hydroxy-2-methylpropanoic Acid]
